Test results taken from PMC4413193, “3-[4-(1H-Indol-3-yl)-1,3-thiazol-2-yl]-1H-pyrrolo[2,3-b]pyridines, Nortopsentin Analogues with Antiproliferative Activity” (Marine Drugs, 2015).

Columns and labels:
U251 = assay: NCI-60 in vitro tumor cell growth inhibition, U251 (CNS cancer); type: cell-based; conditions: Homo sapiens, U-251, five concentration levels
Procedure: (§1) All the synthesized thiazoles 3a–k were evaluated by the National Cancer Institute (Bethesda MD) for cytotoxicity against the NCI-60 cell line panel using standard protocols. Initially, the selected derivatives 3c,d,g,h,j,k were tested at a single dose (10^−5 M) on the full panel of approximately 60 human tumor cell lines derived from 9 human cancer cell types, that have been grouped in disease sub-panels including leukemia, non-small-cell lung, colon, central nervous system (CNS), melanoma, ovarian, renal, prostate and breast cancers (data not shown). Compounds 3d and 3k were further selected for full evaluation at five concentration levels (10^−4–10^−8 M).
(§2) The antitumor activity of compounds 3d and 3k was given by three parameters for each cell line: GI50 (the molar concentration of the compound that inhibits 50% net cell growth), TGI (the molar concentration of the compound leading to total inhibition of net cell growth), and LC50 (the molar concentration of the compound that induces 50% net cell death). The average values of mean graph midpoint (MG_MID) were calculated for each of these parameters.

BT-549 = assay: NCI-60 in vitro tumor cell growth inhibition, BT-549 (breast cancer); type: cell-based; conditions: Homo sapiens, five concentration levels
Procedure: as §1, §2

MALME-3M = assay: NCI-60 in vitro tumor cell growth inhibition, MALME-3M (melanoma); type: cell-based; conditions: Homo sapiens, five concentration levels
Procedure: as §1, §2

SF-539 = assay: NCI-60 in vitro tumor cell growth inhibition, SF-539 (CNS cancer); type: cell-based; conditions: Homo sapiens, five concentration levels
Procedure: as §1, §2

SK-MEL-2 = assay: NCI-60 in vitro tumor cell growth inhibition, SK-MEL-2 (melanoma); type: cell-based; conditions: Homo sapiens, five concentration levels
Procedure: as §1, §2

RPMI-8226 = assay: NCI-60 in vitro tumor cell growth inhibition, RPMI-8226 (leukemia); type: cell-based; conditions: Homo sapiens, five concentration levels 10^−4–10^−8 M
Procedure: as §1, §2

K-562 = assay: NCI-60 in vitro tumor cell growth inhibition, K-562 (leukemia); type: cell-based; conditions: Homo sapiens, K562, five concentration levels 10^−4–10^−8 M
Procedure: as §1, §2

HepG2 cells = assay: Cell cycle analysis by flow cytometry (PI staining); type: cell-based, human; conditions: HepG2, 24 h treatment
Procedure: The distribution of HepG2 cells in the cell cycle phases after 24 h treatment with the two norptopsentin analogues, was assessed by flow cytometric analysis after staining of DNA with PI.
Cell cycle stage was analyzed by flow cytometry. Aliquots of 1 × 10^6 cells were harvested by centrifugation, washed with PBS and incubated in the dark in a PBS solution containing 20 μg/mL propidium iodide (PI) and 200 μg/mL RNase, for 30 min, at room temperature. Then samples were subjected to fluorescence-activated cell sorting (FACS) analysis by Epics XL™ flow cytometer using Expo32 software (Beckman Coulter, Fullerton, CA, USA). At least 1 × 10^4 cells were analyzed for each sample.

SK-OV-3 = assay: NCI-60 in vitro tumor cell growth inhibition, SK-OV-3 (ovarian cancer); type: cell-based; conditions: Homo sapiens, five concentration levels
Procedure: as §1, §2

CCRF-CEM = assay: NCI-60 in vitro tumor cell growth inhibition, CCRF-CEM (leukemia); type: cell-based; conditions: Homo sapiens, five concentration levels 10^−4–10^−8 M
Procedure: as §1, §2

UO-31 = assay: NCI-60 in vitro tumor cell growth inhibition, UO-31 (renal cancer); type: cell-based; conditions: Homo sapiens, five concentration levels
Procedure: as §1, §2

HOP-62 = assay: NCI-60 in vitro tumor cell growth inhibition, HOP-62 (non-small cell lung cancer); type: cell-based; conditions: Homo sapiens, five concentration levels
Procedure: as §1, §2

NCI-H226 = assay: NCI-60 in vitro tumor cell growth inhibition, NCI-H226 (non-small cell lung cancer); type: cell-based; conditions: Homo sapiens, five concentration levels
Procedure: as §1, §2

HCC-2998 = assay: NCI-60 in vitro tumor cell growth inhibition, HCC-2998 (colon cancer); type: cell-based; conditions: Homo sapiens, five concentration levels
Procedure: as §1, §2

SN12C = assay: NCI-60 in vitro tumor cell growth inhibition, SN12C (renal cancer); type: cell-based; conditions: Homo sapiens, five concentration levels
Procedure: as §1, §2

786-0 = assay: NCI-60 in vitro tumor cell growth inhibition, 786-0 (renal cancer); type: cell-based; conditions: Homo sapiens, five concentration levels
Procedure: as §1, §2

OVCAR-4 = assay: NCI-60 in vitro tumor cell growth inhibition, OVCAR-4 (ovarian cancer); type: cell-based; conditions: Homo sapiens, five concentration levels
Procedure: as §1, §2

LOX IMVI = assay: NCI-60 in vitro tumor cell growth inhibition, LOX IMVI (melanoma); type: cell-based; conditions: Homo sapiens, five concentration levels
Procedure: as §1, §2

SR = assay: NCI-60 in vitro tumor cell growth inhibition, SR (leukemia); type: cell-based; conditions: Homo sapiens, five concentration levels 10^−4–10^−8 M
Procedure: as §1, §2

M14 = assay: NCI-60 in vitro tumor cell growth inhibition, M14 (melanoma); type: cell-based; conditions: Homo sapiens, five concentration levels
Procedure: as §1, §2

RXF393 = assay: NCI-60 in vitro tumor cell growth inhibition, RXF393 (renal cancer); type: cell-based; conditions: Homo sapiens, RXF 393, five concentration levels
Procedure: as §1, §2

[1] = tested on: human HepG2 hepatocarcinoma cells; assay: MTT cell growth assay, HepG2; type: cell-based; conditions: 72 h, 0.1–10 μM
Procedure: Cell growth inhibitory activity of compounds 3d and 3k was also investigated on human HepG2 hepatocarcinoma cells, a cell line not included in the NCI panel and of interest in the drug discovery because provided with a very active microsomal system for detoxification of xenobiotics. Monolayer cultures treated for 72 h with 0.1–10 μM concentrations of the compounds were examined by 3-(4,5-dimethylthiazol-2-yl)-2,5-diphenyltetrazolium bromide (MTT) assay for cell growth.
Human cell lines of hepatoma HepG2 and Chang liver were purchased from American Type Culture Collection, Rockville, MD, USA. Cells were grown in RPMI supplemented with 2 mM L-glutamine, 10% FBS, 100 U/mL penicillin, 100 μg/mL streptomycin and 5 μg/mL gentamicin. HepG2 culture medium also contained 1.0 mM sodium pyruvate. Cells were maintained in log phase by seeding twice a week at a density of 3 × 10^8 cells/L in humidified 5% CO2 atmosphere, at 37 °C. […] Cytotoxic activity of the compounds was determined by the MTT quantitative colorimetric assay based on the reduction of the 3-(4,5-dimethyl-2-thiazolyl)-2,5-diphenyl-2H-tetrazolium bromide (MTT) into purple formazan by mitochondrial dehydrogenases of living cells. […] The absorbance at 540 nm was measured in a microplate reader (Bio-RAD, Hercules, CA, USA). […]

HS 578T = assay: NCI-60 in vitro tumor cell growth inhibition, HS 578T (breast cancer); type: cell-based; conditions: Homo sapiens, five concentration levels
Procedure: as §1, §2

CAKI-1 = assay: NCI-60 in vitro tumor cell growth inhibition, CAKI-1 (renal cancer); type: cell-based; conditions: Homo sapiens, five concentration levels
Procedure: as §1, §2

A498 = assay: NCI-60 in vitro tumor cell growth inhibition, A498 (renal cancer); type: cell-based; conditions: Homo sapiens, five concentration levels
Procedure: as §1, §2

SK-MEL-5 = assay: NCI-60 in vitro tumor cell growth inhibition, SK-MEL-5 (melanoma); type: cell-based; conditions: Homo sapiens, five concentration levels
Procedure: as §1, §2

ACHN = assay: NCI-60 in vitro tumor cell growth inhibition, ACHN (renal cancer); type: cell-based; conditions: Homo sapiens, five concentration levels
Procedure: as §1, §2

DU-145 = assay: NCI-60 in vitro tumor cell growth inhibition, DU-145 (prostate cancer); type: cell-based; conditions: Homo sapiens, five concentration levels
Procedure: as §1, §2

OVCAR-3 = assay: NCI-60 in vitro tumor cell growth inhibition, OVCAR-3 (ovarian cancer); type: cell-based; conditions: Homo sapiens, five concentration levels
Procedure: as §1, §2

SMILES | GI50 (U251) [nM] | GI50 (BT-549) [nM] | GI50 (MALME-3M) [nM] | GI50 (SF-539) [nM] | GI50 (SK-MEL-2) [nM] | GI50 (RPMI-8226) [nM] | GI50 (K-562) [nM] | distribution of HepG2 cells in the cell cycle phases (HepG2 cells) | GI50 (SK-OV-3) [nM] | GI50 (CCRF-CEM) [nM] | GI50 (UO-31) [nM] | GI50 (HOP-62) [nM] | GI50 (NCI-H226) [nM] | GI50 (HCC-2998) [nM] | GI50 (SN12C) [nM] | GI50 (786-0) [nM] | GI50 (OVCAR-4) [nM] | GI50 (LOX IMVI) [nM] | GI50 (SR) [nM] | GI50 (M14) [nM] | further results
Cn1cc(-c2csc(-c3cn(C)c4ncccc34)n2)c2ccccc21 [Compound 3d, 1-Methyl-3-[4-(1-methyl-1H-indol-3-yl)-1,3-thiazol-2-yl]-1H-pyrrolo[2,3-b]pyridine] | 410 | 470 | 1040 | 180 | 580 | 450 | 70 | significant dose-dependent decrease in the percentage of cells in the G0/G1 and S phases, accompanied by a concomitant percentage increase of cells in the G2/M phase, and appearance of a subG1-cell population | 570 | 400 | 900 | 810 | 740 | 1130 | 12100 | 970 | 7220 | 540 | 60 | 270 | GI50 (RXF393): 330 nM; GI50 [1]: 1690 nM; GI50 (HS 578T): 590 nM; GI50 (CAKI-1): 380 nM; GI50 (A498): 500 nM; GI50 (SK-MEL-5): 240 nM; GI50 (ACHN): 720 nM; GI50 (DU-145): 390 nM; GI50 (OVCAR-3): 100 nM
Cn1cc(-c2nc(-c3c[nH]c4ccccc34)cs2)c2cccnc21 [Compound 3k, 3-[4-(1H-Indol-3-yl)-1,3-thiazol-2-yl]-1-methyl-1H-pyrrolo[2,3-b]pyridine] | 430 | 440 | 740 | 250 | 410 | 650 | 120 | significant dose-dependent decrease in the percentage of cells in the G0/G1 and S phases, accompanied by a concomitant percentage increase of cells in the G2/M phase, and appearance of a subG1-cell population | 520 | 430 | 690 | 930 | 650 | 1180 | 5480 | 720 | 520 | 510 | 140 | 280 | GI50 (RXF393): 520 nM; GI50 [1]: 210 nM; GI50 (HS 578T): 660 nM; GI50 (CAKI-1): 440 nM; GI50 (A498): 370 nM; GI50 (SK-MEL-5): 270 nM; GI50 (ACHN): 510 nM; GI50 (DU-145): 560 nM; GI50 (OVCAR-3): 250 nM
